Experimental data from patent US20100273822A1, “Immediate release compositions and methods for delivering drug formulations using strong acid ion exchange resins” (priority 2009, published 2010).

Assay: Dissolution test USP 31 NF 26 section 711, apparatus 1 baskets at 100 rpm
Assay type: physicochemical
Description: The release enhancing agent, CaCl2, was added to the capsule blend of the first sample while a second formulation was prepared as a control without the use of the release enhancing agent. Six capsules from each formulation were then tested for dissolution.
The test used followed USP 31 NF 26 section 711 using apparatus 1 baskets at 100 rpm (no enzymes). The media selected was simulated gastric (0.1N HCl) at a volume of 900 ml. One capsule was added to each dissolution vessel. At the 60 minute time point the baskets were removed without touching the contents and subsequently placed in dissolution vessels containing 900 ml of simulated intestinal fluid (pH of 6.8). Aliquots were drawn at 15, 30, 45, and 120 minutes. An equivalent amount of media was replaced in the dissolution vessel to account for the volume of the sample removed. The aliquots were filtered and subsequently analyzed using HPLC equipped with a UV detector.
The process that was used to create the resinate, filling the capsules and carrying out the dissolution test in this example was the same as described in Example 1 except that 60 mg of CaCl2 was used instead of 40 mg as in Example 1.

Q: For [Ca+2].[Cl-].[Cl-] [CaCl2], which “effect of adding the release enhancing agent on release rate of dextromethorphan vs control formulation” value (Example 1, 40 mg CaCl2 in capsule with dextromethorphan IRP69 resinate) is on record?
A: increased the release rate of dextromethorphan

Q: What about the “effect of adding the release enhancing agent on release rate of dextromethorphan vs control formulation” value (Example 2, 60 mg CaCl2 in capsule with dextromethorphan IRP69 resinate) of the same compound?
A: increased the release rate of dextromethorphan
